Results reported in patent US12201622B2, “Continuous delivery of lenalidomide and other immunomodulatory agents” (Starton Therapeutics, Inc., priority 2019, dated 2025).
“Also recorded” adds a separate entry of the source.

Columns and labels:
[1] = system: H929 multiple myeloma tumor cells; test: Efficacy of lenalidomide continuous infusion in H929 myeloma xenograft model; format: in vivo, CB.17 SCID mouse
Excerpt: In this study, a composition comprising lenalidomide was continuously delivered via subcutaneous infusion or was delivered once a day via intraperitoneal injection to SCID mice wherein the mice were implanted with a H929 multiple myeloma xenograft.
(§1) Six groups of female CB.17 SCID mouse, each containing ten mice, were subcutaneously injected with 1×10^7 H929 multiple myeloma tumor cells in 50% Matrigel. After the tumor reached an average size of 100-150 mm^3, an iPrecio pump was surgically implanted into each of the mice. Dosing began twenty-four hours post pump implantation. Group 1, the control group, was treated with vehicle via intraperitoneal injection once a day. Group 2 was treated with lenalidomide via intraperitoneal injection once a day. Each of Groups 3-6 was treated lenalidomide via continuous subcutaneous infusion at different hourly rate. The dosing lasted 14 days followed by one day off the treatment and lasted for another 14 days. The iPrecio pump was replaced after 14 days. The formulation used in Groups 2-6 contains 20% PEG400 in water as the carrier. Blood was drawn at predetermined time points and analyzed
The table below lists the daily dose and schedule for each of the six groups.

[2] = Body weight and hematologic toxicity (WBC, PLT, ANC) in xenografted SCID mice; format: in vivo, CB.17 SCID mouse; conditions: for ANC: normal range 0.77-2.5; for WBC: normal range 1.4-5.4; for PLT: normal range 733-1441
Procedure: as §1

[3] = Blood levels of lenalidomide in SCID mice after daily intraperitoneal dose; format: in vivo, SCID mouse; conditions: Group 2: 500 mcg ip once a day
Procedure: In the study described in Example 1, the SCID mice in Group 2 were given the standard of care treatment which is a daily intraperitoneal dose of 25 mg/kg (500 mcg for 20 gm mouse) administered once a day. […] For example, if the continuous blood level is greater than that observed at 16 hours but less than that observed at 10 hours in daily intraperitoneal dose of 500 mcg administered once a day, it is effective and non-toxic. The maintenance of continuous dose specific blood levels in terms of their time range are predicted to be safe and effective and result in activity in humans.
as §1
The multiple myeloma study in SCID mice provides pharmacokinetically modeled data to support three treatment paradigms. The standard of care treatment in the mouse model study is a daily intraperitoneal dose of 500 mcg administered once a day (see Group 2). […] The range of tolerable and effective blood levels ranged from the blood level at 10 hours to the blood level at 16 hours. Continuous blood levels of greater than those observed at 8 hours or 0.29 mcg/mL and lower than those observed at 18 hours or 0.013 mcg/mL were either toxic or ineffective, respectfully. The maintenance of continuous dose specific blood levels in terms of their time range are predicted to be safe and effective and result in activity in humans.

[4] = Group 3: 144 μg/day (6 μg/hr) sc continuous, day 8
[5] = Group 4: 48 μg/day (2 μg/hr) sc continuous, day 8
[6] = Group 5: 24 μg/day (1 μg/hr) sc continuous, day 8
[7] = Group 6: 12 μg/day (.5 μg/hr) sc continuous, day 8

For `Nc1cccc2c1CN(C1CCC(=O)NC1=O)C2=O` (stereo not shown) [lenalidomide, 3-(4-amino-1-3-dihydro-1-oxo-2H-isoindol-2yl)-2,6-piperidinedione], the “survival (Kaplan-Meier)” value ([1]; Group 2: 500 μg/day ip qd) was “no mouse survived at day 52”, the tumor volume ([1]; Group 2: 25 mg/kg (500 μg/day) ip qd x 14/1 day off/qd x 14, 25 mg/kg) was “failed to inhibit the growth of the tumor volume; also recorded: slowed progression but did not inhibit the growth of the tumor size” and the tumor volume ([1]; Group 3: 144 μg/day (6 μg/hr) continuous sc infusion, 14 days/1 day off/14 days) was “the only group having tumor volume reduced during the treatment schedule; also recorded: effectively reduced the tumor size in all animals treated at 6 mcg/hr”. The “survival (Kaplan-Meier)” value ([1]; Group 3: 144 μg/day continuous sc infusion, day 1 to day 95) was “the only group having mice survived for 95 days”, the ANC ([2]; Group 2: 25 mg/kg ip qd, day 8) was 1.2 10^3 cells/μL and the WBC ([2]; Group 2: 25 mg/kg ip qd, day 8) was 1.8 10^3 cells/μL. For the same molecule, the PLT ([2]; Group 2: 25 mg/kg ip qd, day 8) was 850 10^3 cells/μL, the ANC [2, 4] was 2.4 10^3 cells/μL and the WBC [2, 4] was 2.8 10^3 cells/μL. For the same molecule, the PLT [2, 4] was 1360 10^3 cells/μL, the ANC [2, 5] was 1.9 10^3 cells/μL and the WBC [2, 5] was 2.4 10^3 cells/μL. The PLT [2, 5] was 1345 10^3 cells/μL, the ANC [2, 6] was 2.8 10^3 cells/μL and the WBC [2, 6] was 3.3 10^3 cells/μL. The PLT [2, 6] was 1410 10^3 cells/μL, the ANC [2, 7] was 2.5 10^3 cells/μL and the WBC [2, 7] was 3.2 10^3 cells/μL. The PLT [2, 7] was 1535 10^3 cells/μL, the body weight ([2]; continuous sc infusion (Group 3, 144 μg/day)) was “insignificant weight loss; also recorded: did not result in substantial loss of body weight” and the hematologic toxicity ([2]; continuous sc infusion, Groups 3-6 (12-144 μg/day), day 8) was “no substantial hematologic toxicity; also recorded: did not result in substantial loss of body weight or hematologic toxicity”. The blood level trough [3] was 2 ng/mL, the Cmax ([3]; female, CB.17 SCID, mouse, blood, 500 ug, at 0.08 hours, read-out: blood level Cmax) was 2900 ng/mL and the concentration at 8 h ([3]; female, CB.17 SCID, mouse, blood, 25 mg/kg, read-out: blood level at 8 hours) was 290 ng/mL. For the same molecule, the concentration at 18 h ([3]; female, CB.17 SCID, mouse, blood, 25 mg/kg, read-out: blood level at 18 hours) was 13 ng/mL.
